ChEMBL document CHEMBL1201862, “PubChem BioAssay data set” (2004)
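Results reflect a 48-hour exposure of cells in 96-well plates to compound at five concentrations. GI50 marks 50% less growth.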 Activity calls are given as the source filed them. Rule as the data show it: active = GI50 up to about 1.1 µM and inactive = higher.

Experiments:
Assay in all cases: inhibition of tumour cell growth, NCI panel, 48 h
DMS-273 = tested on: DMS-273
RXF 631 = tested on: RXF 631
HOP-18 = tested on: HOP-18
LXFL 529 = tested on: LXFL 529
SNB-78 = tested on: SNB-78
KM-20L2 = tested on: KM-20L2
M19-MEL = tested on: M19-MEL
XF498 = tested on: XF498
DLD-1 = tested on: DLD-1

| SMILES | GI50 (DMS-273) | GI50 (RXF 631) | GI50 (HOP-18) | GI50 (LXFL 529) | GI50 (SNB-78) | GI50 (KM-20L2) | GI50 (M19-MEL) | GI50 (XF498) | GI50 (DLD-1) |
| --- | --- | --- | --- | --- | --- | --- | --- | --- | --- |
| COC(=O)C(=O)C(C(=O)C(=O)Nc1cc(C)ccc1C)c1nc2ccc(C(=O)c3ccccc3)cc2nc1O (stereo not drawn) | 74.3 µM (inactive) | > 100 µM (inactive) | 23.8 µM (inactive) | 43.5 µM (inactive) | 58.6 µM (inactive) | > 100 µM (inactive) | 88.7 µM (inactive) |  |  |
| CC(C)N1CCOC(c2ccc(O)c(O)c2)C1 (stereo not drawn) | > 100 µM (inactive) | > 100 µM (inactive) |  | > 100 µM (inactive) | > 100 µM (inactive) | > 100 µM (inactive) | > 100 µM (inactive) | > 100 µM (inactive) | > 100 µM (inactive) |
| NC(=S)N/N=C1/C(=O)N(c2ccc(Cl)cc2Cl)C(=O)C(=O)C1c1nc2ccccc2s1 (stereo not drawn) | > 100 µM (inactive) |  | 98.4 µM (inactive) | > 100 µM (inactive) | > 100 µM (inactive) | > 100 µM (inactive) | > 100 µM (inactive) | > 100 µM (inactive) |  |
| O=C1NC(=O)C2C1c1[nH]c3ccccc3c1C1CCCC12 (stereo not drawn) | 0.481 µM (active) | 3.44 µM (inactive) | 25.3 µM (inactive) | 6.37 µM (inactive) | 6.35 µM (inactive) |  | 0.971 µM (active) | 0.538 µM (active) | 3.87 µM (inactive) |
| COc1ccc(NC(=O)CC/C(CC(=O)C(C)(C)C)=N\NC(=O)C(=O)NN)cc1 | > 100 µM (inactive) | > 100 µM (inactive) | > 100 µM (inactive) | > 100 µM (inactive) | > 100 µM (inactive) | > 100 µM (inactive) | > 100 µM (inactive) |  | > 100 µM (inactive) |
| Cc1ccc(NC(=O)C(=O)C2C(=O)NC(=O)NC2=O)c(C)c1 | > 100 µM (inactive) | > 100 µM (inactive) | > 100 µM (inactive) | > 100 µM (inactive) | > 100 µM (inactive) | > 100 µM (inactive) | > 100 µM (inactive) |  | > 100 µM (inactive) |
| CN(C(=O)C12C3C4C1C1C2C3C41I)C(C)(C)C (stereo not drawn) | 47 µM (inactive) | 53.2 µM (inactive) | > 100 µM (inactive) | > 87.1 µM (inactive) | > 100 µM (inactive) | > 89.3 µM (inactive) | > 100 µM (inactive) | > 61.9 µM (inactive) | > 100 µM (inactive) |
| Cc1nc(N)sc1C(=O)/C=C/c1ccc([N+](=O)[O-])cc1 | > 100 µM (inactive) |  | > 100 µM (inactive) |  | > 100 µM (inactive) | > 100 µM (inactive) | > 100 µM (inactive) |  | > 100 µM (inactive) |
| O=c1[nH]cnc2c(COCCO)c[nH]c12 | > 100 µM (inactive) | > 100 µM (inactive) | > 100 µM (inactive) | > 100 µM (inactive) | > 100 µM (inactive) | > 100 µM (inactive) | > 100 µM (inactive) | > 100 µM (inactive) | > 100 µM (inactive) |
| CN(C)/C=C/C(=CC=[N+](C)C)/C=C/N(C)C.[O-][Cl+3]([O-])([O-])[O-] | > 100 µM (inactive) | > 100 µM (inactive) |  | > 100 µM (inactive) | > 100 µM (inactive) |  |  | > 100 µM (inactive) | > 100 µM (inactive) |
| COC(=O)C(C(=O)Cc1ccccc1[N+](=O)[O-])C(=O)OC | > 100 µM (inactive) | > 100 µM (inactive) | > 100 µM (inactive) | > 100 µM (inactive) |  | > 100 µM (inactive) | > 100 µM (inactive) | > 100 µM (inactive) | > 100 µM (inactive) |
| Cc1c(N)c(C#N)c2n(C)c3ncccc3n2c1=O | > 100 µM (inactive) |  | > 100 µM (inactive) | > 100 µM (inactive) | > 100 µM (inactive) | > 100 µM (inactive) | > 100 µM (inactive) | > 100 µM (inactive) | > 100 µM (inactive) |
| CCOC(=O)C1(C(=O)OCC)C(C(C)(C)C)=C(C)c2ccccc21 | 12.1 µM (inactive) | 13.7 µM (inactive) | 29.1 µM (inactive) | 11.6 µM (inactive) |  | 13.5 µM (inactive) | 14.1 µM (inactive) | 12.6 µM (inactive) | 11.8 µM (inactive) |
| COC(=O)C1=CC2C(=O)OC1CC2C#N (stereo not drawn) | > 100 µM (inactive) |  | > 100 µM (inactive) | > 100 µM (inactive) | > 100 µM (inactive) | > 100 µM (inactive) |  | > 100 µM (inactive) | > 100 µM (inactive) |
| C=C1CC(CC(=O)C(C)CC2CC(=C)C(=O)O2)OC1=O (stereo not drawn) | 23.2 µM (inactive) | 46.3 µM (inactive) | 22.4 µM (inactive) | 12.8 µM (inactive) | 17.3 µM (inactive) | 33 µM (inactive) | 16.3 µM (inactive) | 23.8 µM (inactive) | 14.4 µM (inactive) |
| NC(=S)N/N=C/C(=C/Nc1ccccc1)[N+](=O)[O-] |  |  |  | > 100 µM (inactive) |  | > 100 µM (inactive) | > 100 µM (inactive) | > 100 µM (inactive) | > 100 µM (inactive) |
| CSC(=Nc1nnc(-c2ccc([N+](=O)[O-])cc2)s1)SC | 41.1 µM (inactive) |  | 5.64 µM (inactive) | 37 µM (inactive) | 12.4 µM (inactive) | > 100 µM (inactive) | > 100 µM (inactive) | 21.6 µM (inactive) | 34.7 µM (inactive) |
| CC(C)NCCCC(C)Nc1ccnc2ccc3nn(C)nc3c12 (stereo not drawn) | 41.7 µM (inactive) |  | 9.4 µM (inactive) | 57.1 µM (inactive) | 43.1 µM (inactive) | > 10 µM (inactive) | 84.9 µM (inactive) | > 100 µM (inactive) | 71.9 µM (inactive) |
| O=C(/C=C/c1ccc(Cl)cc1)c1ccc(Cl)c(Cl)c1 | 40.9 µM (inactive) |  |  | 18.9 µM (inactive) | > 10 µM (inactive) | 41.2 µM (inactive) | 27.8 µM (inactive) |  | 15 µM (inactive) |
| c1cncc(C2c3[nH]c4ccccc4c3CCN2CCCN2CCCCC2)c1 (stereo not drawn) | > 100 µM (inactive) |  |  | 68.7 µM (inactive) | > 100 µM (inactive) | > 100 µM (inactive) | > 100 µM (inactive) | 57.4 µM (inactive) | > 100 µM (inactive) |
| CCCCCCCC(=O)OCC1OC(n2cc(F)c(=O)[nH]c2=O)C(NC(=O)OCc2ccccc2)C(O)C1O (stereo not drawn) | 40 µM (inactive) |  |  | 31.3 µM (inactive) | > 100 µM (inactive) | 47.1 µM (inactive) | 56.8 µM (inactive) |  |  |
| O=C1c2ccccc2C(=O)c2[nH]c(Cc3ccc(F)cc3)nc21 | 18.1 µM (inactive) | 15.9 µM (inactive) |  | 26.4 µM (inactive) |  | 17.1 µM (inactive) | 16.9 µM (inactive) | 17.2 µM (inactive) | 4.01 µM (inactive) |
| COC1(C)Cc2c(c(C)c(O)c3c2C(=O)C=C(Cl)C3=O)O1 (stereo not drawn) | > 64.6 µM (inactive) |  |  | 15.1 µM (inactive) |  | > 100 µM (inactive) | 16.4 µM (inactive) | 23.6 µM (inactive) | 15.7 µM (inactive) |
